Experimental data reported in article PMC5218480 (PLoS ONE, 2017).

Tested on: MV-4-11 cells
Assay: Gene expression microarray analysis (Affymetrix PrimeView) and GSEA
Type: cell-based, human
Set-up: RFU PODN (11730768_x_at) / Fold change /veh PODN (11730768_x_at) / RFU LINC00158 (11744669_a_at) / Fold change /veh LINC00158 (11744669_a_at) / RFU DUSP10 (11751237_a_at) / Fold change /veh DUSP10 (11751237_a_at) / RFU ID3 (11757404_x_at) / Fold change /veh ID3 (11757404_x_at) / RFU PLEKHG5 (11737974_s_at) / Fold change /veh PLEKHG5 (11737974_s_at) / RFU LRRC4B (11730491_at) / Fold change /veh LRRC4B (11730491_at) / RFU GIMAP4 (11747438_a_at) / Fold change /veh GIMAP4 (11747438_a_at) / RFU KRT8 (11758183_x_at) / Fold change /veh KRT8 (11758183_x_at) / RFU CNN1 (11734310_a_at) / Fold change /veh CNN1 (11734310_a_at) / RFU VPS37D (11726825_at) / Fold change /veh VPS37D (11726825_at) / RFU C10orf10 (11716522_x_at) / Fold change /veh C10orf10 (11716522_x_at) / RFU KIR2DL2 /// KIR2DL4 /// KIR2DL5A /// KIR2DL5B /// KIR2DS1 /// KIR2DS2 /// KIR2DS3 /// KIR2DS4 /// KIR3DL3 /// KIR3DL3 /// KIR3DS1 (11738374_at) / Fold change /veh KIR2DL2 /// KIR2DL4 /// KIR2DL5A /// KIR2DL5B /// KIR2DS1 /// KIR2DS2 /// KIR2DS3 /// KIR2DS4 /// KIR3DL3 /// KIR3DL3 /// KIR3DS1 (11738374_at) / RFU C1QL1 (11718748_at) / Fold change /veh C1QL1 (11718748_at) / RFU TMPRSS4 (11747572_a_at) / Fold change /veh TMPRSS4 (11747572_a_at) / RFU HAMP (11756126_x_at) / Fold change /veh HAMP (11756126_x_at) / RFU RNFT2 (11725882_a_at) / Fold change /veh RNFT2 (11725882_a_at) / RFU NR4A2 (11747474_a_at) / Fold change /veh NR4A2 (11747474_a_at) / RFU ABCC12 (11746883_a_at) / Fold change /veh ABCC12 (11746883_a_at) / RFU TMEM136 (11760407_x_at) / Fold change /veh TMEM136 (11760407_x_at) / RFU CLDN22 /// WWC2 (11732394_at) / Fold change /veh CLDN22 /// WWC2 (11732394_at) / RFU HLA-DPB1 (11760878_x_at) / Fold change /veh HLA-DPB1 (11760878_x_at) / RFU SPINT1 (11716480_a_at) / Fold change /veh SPINT1 (11716480_a_at) / RFU GAP43 (11754022_s_at) / Fold change /veh GAP43 (11754022_s_at) / RFU A4GNT (11735810_at) / Fold change /veh A4GNT (11735810_at) / RFU PRB3 (11715151_x_at) / Fold change /veh PRB3 (11715151_x_at) / RFU TUBB4B (11761932_at) / Fold change /veh TUBB4B (11761932_at) / RFU CAPN14 (11732068_a_at) / Fold change /veh CAPN14 (11732068_a_at) / RFU TMCC2 (11721928_a_at) / Fold change /veh TMCC2 (11721928_a_at) / RFU IRGQ (11745062_a_at) / Fold change /veh IRGQ (11745062_a_at) / RFU FAM174B (11720279_a_at) / Fold change /veh FAM174B (11720279_a_at) / RFU TMPRSS4 (11748680_a_at) / Fold change /veh TMPRSS4 (11748680_a_at) / RFU FAM212B (11763350_a_at) / Fold change /veh FAM212B (11763350_a_at) / RFU PLEKHG5 (11743358_a_at) / Fold change /veh PLEKHG5 (11743358_a_at) / RFU ZSCAN30 (11745921_a_at) / Fold change /veh ZSCAN30 (11745921_a_at) / RFU CMKLR1 (11741424_a_at) / Fold change /veh CMKLR1 (11741424_a_at) / RFU LOC101060620 /// MAPK8IP1 (11723275_at) / Fold change /veh LOC101060620 /// MAPK8IP1 (11723275_at) / RFU SPTSSB (11747773_x_at) / Fold change /veh SPTSSB (11747773_x_at) / RFU PRSS12 (11739890_at) / Fold change /veh PRSS12 (11739890_at) / RFU BIN1 (11741810_x_at) / Fold change /veh BIN1 (11741810_x_at) / RFU WNT11 (11732464_a_at) / Fold change /veh WNT11 (11732464_a_at) / RFU C10orf10 (11716521_a_at) / Fold change /veh C10orf10 (11716521_a_at) / RFU C5orf56 (11738089_at) / Fold change /veh C5orf56 (11738089_at) / RFU CYB561 (11721691_x_at) / Fold change /veh CYB561 (11721691_x_at) / RFU ANKRD19P (11752326_a_at) / Fold change /veh ANKRD19P (11752326_a_at) / RFU OR2T12 /// OR2T33 /// OR2T8 (11738714_s_at) / Fold change /veh OR2T12 /// OR2T33 /// OR2T8 (11738714_s_at) / RFU VCAN (11748164_a_at) / Fold change /veh VCAN (11748164_a_at) / RFU JSRP1 (11732532_at) / Fold change /veh JSRP1 (11732532_at) / RFU KRTAP10-11 (11738290_x_at) / Fold change /veh KRTAP10-11 (11738290_x_at) / RFU MYO3A (11730013_a_at) / Fold change /veh MYO3A (11730013_a_at) / RFU EBF3 (11725865_a_at) / Fold change /veh EBF3 (11725865_a_at) / RFU CAMK2N1 (11719241_x_at) / Fold change /veh CAMK2N1 (11719241_x_at) / RFU C5orf56 (11738088_a_at) / Fold change /veh C5orf56 (11738088_a_at) / RFU OLFML3 (11715873_a_at) / Fold change /veh OLFML3 (11715873_a_at) / RFU LOC100653217 /// NTM (11731650_a_at) / Fold change /veh LOC100653217 /// NTM (11731650_a_at) / RFU MAPK11 (11762145_a_at) / Fold change /veh MAPK11 (11762145_a_at) / RFU FIZ1 (11724087_x_at) / Fold change /veh FIZ1 (11724087_x_at) / RFU OASL (11726364_x_at) / Fold change /veh OASL (11726364_x_at) / RFU SOX15 (11748057_x_at) / Fold change /veh SOX15 (11748057_x_at) / RFU CD79A (11719716_a_at) / Fold change /veh CD79A (11719716_a_at) / RFU HIST1H1D (11736915_at) / Fold change /veh HIST1H1D (11736915_at) / RFU CASKIN2 (11723855_a_at) / Fold change /veh CASKIN2 (11723855_a_at) / RFU LOC730098 (11760151_x_at) / Fold change /veh LOC730098 (11760151_x_at) / RFU OR4N2 (11742367_at) / Fold change /veh OR4N2 (11742367_at) / RFU PRRT2 (11749266_a_at) / Fold change /veh PRRT2 (11749266_a_at) / RFU SNX32 (11753110_a_at) / Fold change /veh SNX32 (11753110_a_at) / RFU CDHR5 (11726645_a_at) / Fold change /veh CDHR5 (11726645_a_at) / RFU RCAN1 (11760418_a_at) / Fold change /veh RCAN1 (11760418_a_at) / RFU FAM167A (11723789_a_at) / Fold change /veh FAM167A (11723789_a_at) / RFU FAM26E (11764081_at) / Fold change /veh FAM26E (11764081_at) / RFU ISYNA1 (11749810_s_at) / Fold change /veh ISYNA1 (11749810_s_at) / RFU ACY1 (11761880_at) / Fold change /veh ACY1 (11761880_at) / RFU 11764098_at / Fold change /veh 11764098_at / RFU SAMD14 (11745864_x_at) / Fold change /veh SAMD14 (11745864_x_at) / RFU NPB (11741838_a_at) / Fold change /veh NPB (11741838_a_at) / RFU TMPRSS6 (11731388_a_at) / Fold change /veh TMPRSS6 (11731388_a_at) / RFU KRTAP10-2 (11738614_at) / Fold change /veh KRTAP10-2 (11738614_at) / RFU ARHGAP8 /// PRR5-ARHGAP8 (11727945_x_at) / Fold change /veh ARHGAP8 /// PRR5-ARHGAP8 (11727945_x_at) / RFU KRTAP5-7 /// NADSYN1 (11734609_at) / Fold change /veh KRTAP5-7 /// NADSYN1 (11734609_at) / RFU RASL12 (11751679_a_at) / Fold change /veh RASL12 (11751679_a_at) / RFU CDKN2B (11736163_a_at) / Fold change /veh CDKN2B (11736163_a_at) / RFU PRF1 (11729649_at) / Fold change /veh PRF1 (11729649_at) / RFU, ZNF638 /// ZNF638-IT1 / Fold change vs veh, ZNF638 /// ZNF638-IT1 / RFU, PANK3 / Fold change vs veh, PANK3 / RFU, SH3YL1 / Fold change vs veh, SH3YL1 / RFU, ZEB2 / Fold change vs veh, ZEB2 / RFU, NRIP1 / Fold change vs veh, NRIP1 / RFU, PTTG1IP / Fold change vs veh, PTTG1IP / RFU, CAPN2 / Fold change vs veh, CAPN2 / RFU, MED14 / Fold change vs veh, MED14 / RFU, SNORA58 / Fold change vs veh, SNORA58 / RFU, C1orf63 / Fold change vs veh, C1orf63 / RFU, LRRFIP1 / Fold change vs veh, LRRFIP1 / RFU, NDUFAF7 / Fold change vs veh, NDUFAF7 / RFU, SLC12A2 / Fold change vs veh, SLC12A2 / RFU, IBTK / Fold change vs veh, IBTK / RFU, ESF1 / Fold change vs veh, ESF1 / Fold change vs veh, TMEM50B / RFU, TAOK1 / Fold change vs veh, TAOK1 / RFU, ACBD3 / Fold change vs veh, ACBD3 / RFU, TMA16 / Fold change vs veh, TMA16 / RFU, RWDD3 / Fold change vs veh, RWDD3 / RFU, BCAT1 / Fold change vs veh, BCAT1 / RFU, EDEM3 / Fold change vs veh, EDEM3 / RFU, TMEM33 / Fold change vs veh, TMEM33 / RFU, WDR75 / Fold change vs veh, WDR75 / RFU, AHCTF1 / Fold change vs veh, AHCTF1 / RFU, TFRC / Fold change vs veh, TFRC / RFU, ZDHHC17 / Fold change vs veh, ZDHHC17 / RFU, NOM1 / Fold change vs veh, NOM1 / RFU, ARL8B / Fold change vs veh, ARL8B / RFU, ZBTB11 / Fold change vs veh, ZBTB11 / RFU, TAMM41 / Fold change vs veh, TAMM41 / RFU, KIAA1704 /// LOC100996395 / Fold change vs veh, KIAA1704 /// LOC100996395 / RFU, ING1 / Fold change vs veh, ING1 / RFU, TRMT61B / Fold change vs veh, TRMT61B / RFU, FUBP3 / Fold change vs veh, FUBP3 / RFU, TP53 / Fold change vs veh, TP53 / RFU, TNKS2 / Fold change vs veh, TNKS2 / RFU, ZFP14 / Fold change vs veh, ZFP14 / RFU, ACTR2 / Fold change vs veh, ACTR2 / RFU, PPP3R1 / Fold change vs veh, PPP3R1 / RFU, PIK3R1 / Fold change vs veh, PIK3R1 / RFU, HNRNPA1 / Fold change vs veh, HNRNPA1 / RFU, RNF170 / Fold change vs veh, RNF170 / RFU, ZNF28 / Fold change vs veh, ZNF28 / RFU, RNGTT / Fold change vs veh, RNGTT / RFU, OGT / Fold change vs veh, OGT / RFU, BRD1 / Fold change vs veh, BRD1 / RFU, MARS / Fold change vs veh, MARS / RFU, ZNF655 / Fold change vs veh, ZNF655 / RFU, FAHD1 / Fold change vs veh, FAHD1 / RFU, BDP1 / Fold change vs veh, BDP1 / RFU, LRRCC1 / Fold change vs veh, LRRCC1 / RFU, ARID1A / Fold change vs veh, ARID1A / RFU, ZNF146 / Fold change vs veh, ZNF146 / RFU, ZNF330 / Fold change vs veh, ZNF330 / RFU, GPN3 / Fold change vs veh, GPN3 / RFU, C9orf123 / Fold change vs veh, C9orf123 / RFU, N4BP2L2 / Fold change vs veh, N4BP2L2 / RFU, ARFIP1 / Fold change vs veh, ARFIP1 / RFU, FAM179B / Fold change vs veh, FAM179B / RFU, BCL10 / Fold change vs veh, BCL10 / RFU, UHRF1BP1L / Fold change vs veh, UHRF1BP1L / RFU, BET1 / Fold change vs veh, BET1 / RFU, CNOT2 / Fold change vs veh, CNOT2 / RFU, ZNF268 / Fold change vs veh, ZNF268 / Fold change vs veh, ZNF507 / RFU, DGCR2 / Fold change vs veh, DGCR2 / RFU, WDSUB1 / Fold change vs veh, WDSUB1 / Fold change vs veh, HSP90B1 /// MIR3652 / RFU, ADSS / Fold change vs veh, ADSS / RFU, GK / Fold change vs veh, GK / RFU, ZNF148 / Fold change vs veh, ZNF148 / RFU, TAF9 / Fold change vs veh, TAF9 / RFU, SLC1A5 / Fold change vs veh, SLC1A5 / RFU, SLMO2 / Fold change vs veh, SLMO2 / RFU, ABCC4 / Fold change vs veh, ABCC4 / RFU, LOC101060439 /// RAP1B / Fold change vs veh, LOC101060439 /// RAP1B / RFU, RFX7 / Fold change vs veh, RFX7 / RFU, GTPBP10 / Fold change vs veh, GTPBP10 / RFU, CNEP1R1 / Fold change vs veh, CNEP1R1 / RFU, BIVM-ERCC5 /// ERCC5 / Fold change vs veh, BIVM-ERCC5 /// ERCC5 / RFU, ILF3 / Fold change vs veh, ILF3 / RFU 11762660_at / Fold change /veh 11762660_at / RFU VCAN (11757783_s_at) / Fold change /veh VCAN (11757783_s_at) / RFU DDX43 (11728927_at) / Fold change /veh DDX43 (11728927_at) / RFU KRT8 (11758188_x_at) / Fold change /veh KRT8 (11758188_x_at) / RFU NKD1 (11759106_at) / Fold change /veh NKD1 (11759106_at) / RFU SRD5A1 (11742802_a_at) / Fold change /veh SRD5A1 (11742802_a_at) / RFU TPSAB1 /// TPSB2 (11721975_s_at) / Fold change /veh TPSAB1 /// TPSB2 (11721975_s_at) / RFU GSTM3 (11746129_a_at) / Fold change /veh GSTM3 (11746129_a_at) / RFU IL23R (11737362_x_at) / Fold change /veh IL23R (11737362_x_at) / RFU TMEM51 (11727254_a_at) / Fold change /veh TMEM51 (11727254_a_at) / RFU PIWIL2 (11732686_x_at) / Fold change /veh PIWIL2 (11732686_x_at) / RFU ORM1 (11744905_x_at) / Fold change /veh ORM1 (11744905_x_at) / RFU CCDC152 (11743942_at) / Fold change /veh CCDC152 (11743942_at) / RFU ECM1 (11717891_a_at) / Fold change /veh ECM1 (11717891_a_at) / RFU IL23R (11748794_a_at) / Fold change /veh IL23R (11748794_a_at) / RFU TNFAIP8L3 (11732012_x_at) / Fold change /veh TNFAIP8L3 (11732012_x_at) / RFU MBOAT4 (11741988_at) / Fold change /veh MBOAT4 (11741988_at) / RFU 11764193_at / Fold change /veh 11764193_at / RFU TMEM53 (11763286_at) / Fold change /veh TMEM53 (11763286_at) / RFU MAGEB2 (11727129_at) / Fold change /veh MAGEB2 (11727129_at) / RFU TMEM200A (11744735_a_at) / Fold change /veh TMEM200A (11744735_a_at) / RFU CCDC152 (11751479_a_at) / Fold change /veh CCDC152 (11751479_a_at) / RFU FAM211A (11726209_a_at) / Fold change /veh FAM211A (11726209_a_at) / RFU RGS16 (11746705_a_at) / Fold change /veh RGS16 (11746705_a_at) / RFU VCAN (11755009_s_at) / Fold change /veh VCAN (11755009_s_at) / RFU RHOB (11743442_s_at) / Fold change /veh RHOB (11743442_s_at) / RFU RGS16 (11720943_a_at) / Fold change /veh RGS16 (11720943_a_at) / RFU RGS16 (11720944_at) / Fold change /veh RGS16 (11720944_at) / RFU, VPS4B / Fold change vs veh, VPS4B / RFU, CREB1 / Fold change vs veh, CREB1 / RFU, DNAJC13 / Fold change vs veh, DNAJC13 / RFU, GNAQ / Fold change vs veh, GNAQ / RFU, CDK5R1 / Fold change vs veh, CDK5R1 / RFU, ZRANB3 / Fold change vs veh, ZRANB3 / RFU, CUL4A / Fold change vs veh, CUL4A / RFU, CCNY / Fold change vs veh, CCNY / RFU, UFL1 / Fold change vs veh, UFL1 / RFU, COG3 / Fold change vs veh, COG3 / RFU, DIAPH2 / Fold change vs veh, DIAPH2 / RFU, SKA2 / Fold change vs veh, SKA2 / RFU, AFF3 / Fold change vs veh, AFF3 / RFU, LMF1 / Fold change vs veh, LMF1 / RFU, IPO11 / Fold change vs veh, IPO11 / RFU, DFFB / Fold change vs veh, DFFB / RFU, FOXP1 / Fold change vs veh, FOXP1 / RFU, CARD8 / Fold change vs veh, CARD8 / RFU, STRN3 / Fold change vs veh, STRN3 / RFU, ADK / Fold change vs veh, ADK / RFU, RASSF2 / Fold change vs veh, RASSF2 / RFU, WIPF1 / Fold change vs veh, WIPF1 / RFU, LARP1B / Fold change vs veh, LARP1B / RFU, RASA1 / Fold change vs veh, RASA1 / RFU, RB1 / Fold change vs veh, RB1 / RFU, PPFIA1 / Fold change vs veh, PPFIA1 / RFU, MAT2A / Fold change vs veh, MAT2A / RFU, CCT5 / Fold change vs veh, CCT5 / RFU, WDR92 / Fold change vs veh, WDR92 / RFU, CUX1 / Fold change vs veh, CUX1 / RFU, TTC7A / Fold change vs veh, TTC7A / RFU, TMEM135 / Fold change vs veh, TMEM135 / RFU, DEPTOR / Fold change vs veh, DEPTOR / RFU, CPM / Fold change vs veh, CPM / RFU, DNAJB6 / Fold change vs veh, DNAJB6 / RFU, CACNA2D3 / Fold change vs veh, CACNA2D3 / RFU, DTX4 / Fold change vs veh, DTX4 / RFU, TFCP2 / Fold change vs veh, TFCP2 / RFU, GMCL1 /// GMCL1P1 / Fold change vs veh, GMCL1 /// GMCL1P1 / RFU, AEBP2 / Fold change vs veh, AEBP2 / RFU, SNHG1 /// SNORD22 /// SNORD25 /// SNORD26 /// SNORD27 /// SNORD28 /// SNORD29 /// SNORD31 / Fold change vs veh, SNHG1 /// SNORD22 /// SNORD25 /// SNORD26 /// SNORD27 /// SNORD28 /// SNORD29 /// SNORD31 / Fold change (Aza/veh), C12orf56 (ProbeSet 11735607_a_at) / Fold change (ACY-1035/veh), C12orf56 (ProbeSet 11735607_a_at) / Fold change (Aza/veh), FGFR1OP (ProbeSet 11751329_s_at) / Fold change (ACY-1035/veh), FGFR1OP (ProbeSet 11751329_s_at) / Fold change (Aza/veh), VPS36 (ProbeSet 11739960_a_at) / Fold change (ACY-1035/veh), VPS36 (ProbeSet 11739960_a_at) / RFU SYPL1 (11715823_x_at) / Fold change /veh SYPL1 (11715823_x_at) / RFU IGFBP7 (11715501_s_at) / Fold change /veh IGFBP7 (11715501_s_at) / RFU REEP3 (11722064_at) / Fold change /veh REEP3 (11722064_at) / RFU IGLL1 (11728026_x_at) / Fold change /veh IGLL1 (11728026_x_at): dose or concentration left out as unconfirmed
Conditions: MV-4-11 cells, 48 hours

Nc1ccc(-c2cccs2)cc1NC(=O)c1ccc2c(c1)cc(C1CC1)n2CCN1CCOCC1 [ACY-1035]
Fold change /veh LOC101060620 /// MAPK8IP1 (11723275_at): 0.98
